# Reference: patent US20230002377A1, “THERAPEUTIC COMBINATIONS OF DRUGS AND METHODS OF USING THEM” (HARMONY BIOSCIENCES, LLC, priority 2020, published 2023)
# Key:
# [1] = target: Transporter, Norepinephrine (NET) (Homo sapiens, UniProt P23975); assay: NET radioligand binding ([125I] RTI-55), Eurofins; conditions: for inhibition at 0.01 µM: read-out: NET, % inhibition, 10 nM compound; for inhibition at 0.1 µM: read-out: NET, % inhibition, 100 nM compound
# Description: Source: Human recombinant MDCK cells;
# Incubation Time/Temp: 3 hours @ 4° C.;
# (§2) Incubation Buffer: 50 mM Tris-HCl, pH 7.4, 100 mM NaCl, 1 μM Leupeptin, 10 μM PMSF;
# Non-Specific Ligand: 10.0 μM Desipramine;
# (§3) Quantitation Method: Radioligand Binding;
# [2] = target: Transporter, Dopamine (DAT) (Homo sapiens, UniProt Q01959); assay: DAT radioligand binding ([125I] RTI-55), Eurofins; conditions: read-out: DAT, % inhibition, 100 nM compound
# Chain of Transporter, Dopamine (DAT) (Q01959 whole entry): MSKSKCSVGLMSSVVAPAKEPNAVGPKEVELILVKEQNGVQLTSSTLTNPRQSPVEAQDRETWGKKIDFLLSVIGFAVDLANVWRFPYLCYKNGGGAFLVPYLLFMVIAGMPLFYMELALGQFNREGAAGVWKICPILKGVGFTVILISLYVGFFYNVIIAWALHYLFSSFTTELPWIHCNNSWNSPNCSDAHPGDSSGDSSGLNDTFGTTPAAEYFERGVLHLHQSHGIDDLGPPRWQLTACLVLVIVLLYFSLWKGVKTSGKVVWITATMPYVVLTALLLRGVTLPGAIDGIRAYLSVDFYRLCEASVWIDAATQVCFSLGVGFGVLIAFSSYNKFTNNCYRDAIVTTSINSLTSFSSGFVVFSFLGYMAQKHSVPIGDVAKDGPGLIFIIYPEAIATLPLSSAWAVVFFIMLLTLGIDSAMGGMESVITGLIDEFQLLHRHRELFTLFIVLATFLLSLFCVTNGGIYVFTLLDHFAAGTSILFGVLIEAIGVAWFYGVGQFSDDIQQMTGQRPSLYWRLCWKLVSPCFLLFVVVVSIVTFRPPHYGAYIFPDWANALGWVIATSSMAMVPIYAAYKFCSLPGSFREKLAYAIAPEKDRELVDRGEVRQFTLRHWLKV
# Description: Source: Human recombinant CHO—S cells;
# Incubation Time/Temp: 3 hours @ 4° C.;
# as §2
# Non-Specific Ligand: 10.0 μM Nomifensine;
# Specific Binding: 90% (Historical Values);
# as §3
# MCHR1 = MCHR1 (Homo sapiens, UniProt Q99705); assay: Contribution of N-acetyl metabolite to MCHR1 antagonism
# Chain of MCHR1 (Q99705 whole entry, species assumed): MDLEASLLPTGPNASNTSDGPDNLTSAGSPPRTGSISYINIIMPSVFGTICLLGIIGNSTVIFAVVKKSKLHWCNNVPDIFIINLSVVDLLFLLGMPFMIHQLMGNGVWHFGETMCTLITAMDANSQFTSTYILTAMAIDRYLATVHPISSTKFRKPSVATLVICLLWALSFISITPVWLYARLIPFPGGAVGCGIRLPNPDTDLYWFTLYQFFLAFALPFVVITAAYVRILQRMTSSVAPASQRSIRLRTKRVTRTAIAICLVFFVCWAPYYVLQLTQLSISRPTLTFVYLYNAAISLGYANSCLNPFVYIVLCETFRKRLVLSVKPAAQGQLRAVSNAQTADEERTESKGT
# From the text: (§1) By substituting the hydrogens with deuterium on the carbon(s) adjacent to the nitrogen which is acetylated (see for example, Examples 5 to 7), acetylation process can be slowed down to reduce the formation of this metabolite.
# [3] = Metabolite level of Formula II in phase I clinical trial; assay type: in vivo, human; conditions: healthy volunteers
# From the text: as §1
# DAT = target: T1, DAT (Homo sapiens, UniProt Q01959); conditions: approved monoamine reuptake inhibitors at efficacious doses, cited from earlier work
# T1 construct: host or cells: living brain (PET)
# T1 sequence (Q01959 whole entry): as the sequence (Q01959 whole entry) above
# NET = NET (Homo sapiens, UniProt P23975); conditions: at efficacious doses; cited from earlier work
# Chain of NET (P23975 whole entry): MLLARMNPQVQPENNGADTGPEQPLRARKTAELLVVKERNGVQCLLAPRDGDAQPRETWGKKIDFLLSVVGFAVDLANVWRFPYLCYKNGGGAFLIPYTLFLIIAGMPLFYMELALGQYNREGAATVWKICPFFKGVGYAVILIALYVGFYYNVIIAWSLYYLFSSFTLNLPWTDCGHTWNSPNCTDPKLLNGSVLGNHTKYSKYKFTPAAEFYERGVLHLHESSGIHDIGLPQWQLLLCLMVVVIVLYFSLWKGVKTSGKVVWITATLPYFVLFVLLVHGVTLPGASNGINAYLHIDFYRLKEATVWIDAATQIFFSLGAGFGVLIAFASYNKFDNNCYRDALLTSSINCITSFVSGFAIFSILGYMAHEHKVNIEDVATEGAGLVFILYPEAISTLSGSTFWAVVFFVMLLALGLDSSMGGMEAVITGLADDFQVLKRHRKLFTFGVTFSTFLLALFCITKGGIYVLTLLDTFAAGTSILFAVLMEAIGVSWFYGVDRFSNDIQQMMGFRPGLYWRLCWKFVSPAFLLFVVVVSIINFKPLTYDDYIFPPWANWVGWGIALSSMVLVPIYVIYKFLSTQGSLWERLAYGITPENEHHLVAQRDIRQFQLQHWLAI
# PWS patients = conditions: standard mg/day dosing, cited from earlier work
# Chain of Transporter, Norepinephrine (NET) (P23975 whole entry): as above
smiles,measurement,setting,value
"[2H]C1([2H])NC([2H])([2H])C([2H])(c2ccc(Cl)c(Cl)c2)c2ccc(-c3ccc4ncnn4c3)cc21 (single isomer, unassigned) [Compound 8A, 7-([1,2,4]triazolo[1,5-a]pyridin-6-yl)-4-(3,4-dichlorophenyl)-1,2,3,4-tetrahydroisoquinoline-1,1,3,3,4-d5]",inhibition at 0.01 µM,[1],29%
same,inhibition at 0.1 µM,[1],86%
same,inhibition at 0.1 µM,[2],93%
"[2H]C1([2H])NCC(c2ccc(Cl)c(Cl)c2)c2ccc(-c3ccc4ncnn4c3)cc21 (single isomer, unassigned) [Compound 12A, 7-([1,2,4]triazolo[1,5-a]pyridin-6-yl)-4-(3,4-dichlorophenyl)-1,2,3,4-tetrahydroisoquinoline-1,1-d2]",inhibition at 0.01 µM,[1],34%
same,inhibition at 0.1 µM,[1],79%
"[2H]C1([2H])NCc2cc(-c3ccc4ncnn4c3)ccc2C1([2H])c1ccc(Cl)c(Cl)c1 (single isomer, unassigned) [Compound 16B, 7-([1,2,4]triazolo[1,5-a]pyridin-6-yl)-4-(3,4-dichlorophenyl)-1,2,3,4-tetrahydroisoquinoline-3,3,4-d3]",inhibition at 0.01 µM,[1],49%
same,inhibition at 0.1 µM,[1],72%
same,inhibition at 0.1 µM,[2],76%
"CC(=O)N1CCc2c(c3ccc(-n4ccc(OCc5ccc(F)cn5)cc4=O)cc3n2C)C1 [1-(2-acetyl-5-methyl-2,3,4,5-tetrahydro-1H-pyrido[4,3-b]indol-7-yl)-4-((5-fluoropyridin-2-yl)methoxy)pyridin-2(1H)-one]",contribution to the pharmacology of MCHR1 antagonism,MCHR1,does not contribute to the pharmacology of MCHR1 antagonism
same,amount of metabolite comparing to parent compound Formula II,[3],very significant
"CC(NC(C)(C)C)C(=O)c1cccc(Cl)c1 (stereo not shown) [Bupropion, bupropion]",Lowest Occupancy DAT,DAT; lowest reported,14% (Bupropion)
"COC(=O)C(c1ccccc1)C1CCCCN1 (stereo not shown) [Methylphenidate, methylphenidate]",Highest Occupancy DAT,DAT; highest reported,74%
"COc1ccc(C(CN(C)C)C2(O)CCCCC2)cc1 (stereo not shown) [Venlafaxine, venlafaxine]",NET occupancy,NET,8-61%
CCOC[C@@H]1[C@@H](c2ccc(Cl)c(Cl)c2)C[C@@H]2CC[C@H]1N2C [tesofensine],hyperphagia in patients with the appropriate plasma drug level,PWS patients; PWS patients,hyperphagia controlled completely
same,patients with plasma drug levels exceeding the safety levels who discontinued the treatment due to adverse events,PWS patients; PWS patients,2/3
same,efficacy after lowering the dosing for all patients,PWS patients; lowered dose,no efficacy
